This note sets out measurements from patent US8242118B2, “Arylsulfonamide derivatives for use as CCR3 antagonists in the treatment of inflammatory and immunological disorders” (Axikin Pharmaceuticals Inc., priority 2001, dated 2012).

One data set has as its target T1, Human CCR3 (Homo sapiens, UniProt P51677).
T1 construct: The cloned CCR3 cDNA was constructed with pcDNA3 vector and transfected into a IC562 cell line; expressed in transfected cells
T1 sequence (P51677 1-355): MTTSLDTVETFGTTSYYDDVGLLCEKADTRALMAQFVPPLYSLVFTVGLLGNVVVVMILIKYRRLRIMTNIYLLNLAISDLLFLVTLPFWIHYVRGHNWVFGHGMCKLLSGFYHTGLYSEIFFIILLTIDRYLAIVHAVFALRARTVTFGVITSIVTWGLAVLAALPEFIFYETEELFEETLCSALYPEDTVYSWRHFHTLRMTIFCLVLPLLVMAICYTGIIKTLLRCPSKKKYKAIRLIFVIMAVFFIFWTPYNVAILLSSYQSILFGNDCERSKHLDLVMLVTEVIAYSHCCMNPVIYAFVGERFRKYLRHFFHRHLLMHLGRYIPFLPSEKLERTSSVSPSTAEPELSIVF
In words: Calcium mobilization assay, eotaxin-stimulated. Format: cell-based. The note with it: human CCR3-transformed K562 cells, 10 nM eotaxin; compounds of about 40 to 90% purity; read-out: Activity grade Ca2+ (IC50 class). An outline of the steps: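 K562 cells transfected with human CCR3, pretreated 20–24 h with 5 mM sodium butyrate, loaded with Fluo-3AM. Compound added 10 min before stimulation with 10 nM (final) eotaxin; cytoplasmic calcium read over 60 s by FDSS, IC50 from inhibition curve.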
On the technique in general: A change in cytosolic calcium serves as a functional read-out for many receptors and channels.

Where a name gives a salt, the structure may show the parent alone.

For `Cc1ccc(C)c(Oc2ccc([N+](=O)[O-])cc2S(=O)(=O)N2CCNCC2)c1C.Cl` [Example 1-61], the melting point (commonly the temperature, or range, at which the solid turns liquid) is 220 °C. In addition, the IC50 (commonly the concentration at which inhibition is half-maximal) on Human CCR3 fell in the range of 1000 to 10000 nM.

For the compound `CC(C)(C)c1cccc(Oc2ccc([N+](=O)[O-])cc2S(=O)(=O)N2CCNCC2)c1.Cl` [Example 1-36], the melting point was 155 °C. Further, the IC50 at Human CCR3 was less than 1000 nM. As to `COc1ccccc1Oc1ccc([N+](=O)[O-])cc1S(=O)(=O)N1CCNCC1.Cl` [Example 1-27], the melting point was 142 °C. Besides, the 50% inhibitory concentration (IC50) at Human CCR3 was less than 1000 nM. `Cc1cc(C)cc(Oc2ccc(C(F)(F)F)cc2S(=O)(=O)N2CCNCC2)c1.Cl` [Example 1-43] displayed a melting point of 238 to 239 °C. Further, at Human CCR3, the half-maximal inhibitory concentration (IC50) is less than 1000 nM.

Regarding `Cc1cc(C)cc(Oc2ccc([N+](=O)[O-])cc2S(=O)(=O)N2CCN(C(=O)OC(C)(C)C)CC2)c1` [Example 1-1, tert-butyl 4-{[2-(3,5-dimethylphenoxy)-5-nitrophenyl]sulfonyl}-1-piperazinecarboxylate], the melting point lay in the range of 232 to 233 °C. At Human CCR3, the IC50 is greater than 10000 nM. In the case of `Cc1cc(C)cc(Oc2ccc(S(C)(=O)=O)cc2S(=O)(=O)N2CCNCC2)c1.Cl` [Example 1-35], the melting point lay within 267 to 268 °C. The IC50 on Human CCR3 is less than 1000 nM. With `Cc1cc(C)cc(Oc2ccc(N)cc2S(=O)(=O)N2CCN(C(=O)OC(C)(C)C)CC2)c1` [Example 5-1, tert-butyl 4-{[5-amino-2-(3,5-dimethyl-phenoxy)phenyl]sulfonyl}-1-piperazinecarboxylate], the half-inhibitory concentration (IC50) on Human CCR3 was greater than 10000 nM. Compound `Cl.O=S(=O)(c1cc(Br)ccc1Oc1cc(Cl)cc(Cl)c1)N1CCNCC1` [Example 1-57] gave a melting point of 269 to 271 °C. The IC50 at Human CCR3 is less than 1000 nM. For `Cc1cc(C)cc(Oc2ccc(NC(=O)Cc3ccccc3)cc2S(=O)(=O)N2CCNCC2)c1` [Example 7-1, N-[4-(3,5-dimethylphenoxy)-3-(1-piperazinylsulfonyl)phenyl]-2-phenylacetamide], in that order: 228 to 230 °C and greater than 10000 nM. As to `Cl.O=[N+]([O-])c1cccc(Oc2ccc([N+](=O)[O-])cc2S(=O)(=O)N2CCNCC2)c1` [Example 1-38], the melting point amounted to 150 °C. Also, the half-maximal inhibitory concentration (IC50) on Human CCR3 was less than 1000 nM. Regarding `N#Cc1ccccc1Oc1ccc([N+](=O)[O-])cc1S(=O)(=O)N1CCNCC1` [Example 1-29], the 50% inhibitory concentration (IC50) on Human CCR3 was 1000 to 10000 nM. For `O=C(O)C1CNCCN1S(=O)(=O)c1cc([N+](=O)[O-])ccc1Oc1cc(Cl)cc(Cl)c1` (stereo not drawn) [Example 1-87], the melting point was in the range of 240 to 241 °C. Further, the IC50 on Human CCR3 was less than 1000 nM. In turn, `CC(=O)c1cccc(Oc2ccc([N+](=O)[O-])cc2S(=O)(=O)N2CCNCC2)c1.Cl` [Example 1-31] gave a melting point of 77 °C. The IC50 at Human CCR3 is greater than 10000 nM. `Cc1cccc(Oc2ccc([N+](=O)[O-])cc2S(=O)(=O)N2CCNCC2)c1C.Cl` [Example 1-62] returned a melting point of 142 °C. On Human CCR3, the IC50 was less than 1000 nM. In turn, `Cl.O=[N+]([O-])c1ccc(Oc2cc(C(F)(F)F)cc(C(F)(F)F)c2)c(S(=O)(=O)N2CCNCC2)c1` [Example 1-6] displayed a melting point of 188 to 191 °C. The IC50 at Human CCR3 was less than 1000 nM. Regarding `Cl.O=[N+]([O-])c1ccc(Oc2cc(F)cc(F)c2)c(S(=O)(=O)N2CCNCC2)c1` [Example 1-4], the melting point was 273 to 274 °C. For the same compound, at Human CCR3, the IC50 is less than 1000 nM. Turning to `CC1CN(S(=O)(=O)c2cc([N+](=O)[O-])ccc2Oc2cc(Cl)cc(Cl)c2)CC(C)N1` (stereo not drawn) [Example 1-93], the IC50 on Human CCR3 was less than 1000 nM. Turning to `Cc1cc(C)cc(Oc2ccc(C(=O)N3CCNCC3)cc2S(=O)(=O)N2CCNCC2)c1.Cl.Cl` [Example 1-42], the melting point lay within 288 to 290 °C. Also, at Human CCR3, the IC50 was greater than 10000 nM. Consider `Cc1cc(C)cc(Oc2ccccc2S(=O)(=O)N2CCNCC2)c1.Cl` [Example 1-41], for which the melting point lay within 205 to 207 °C. Besides, the IC50 on Human CCR3 is 1000 to 10000 nM.

On to `Cc1cc(C)cc(Oc2ccc([N+](=O)[O-])cc2S(=O)(=O)N2CC(C)NCC2C)c1.Cl` (stereo not drawn) [Example 1-54], for which the melting point stood at 159 °C. The IC50 on Human CCR3 is less than 1000 nM. Taken in the same sequence, the figures for `Cc1cc(C)cc(Oc2cc(C(F)(F)F)ccc2S(=O)(=O)N2CCNCC2)c1.Cl` [Example 1-46] were 250 to 251 °C and greater than 10000 nM. As for `Cc1cc(C)cc(Oc2cc3cc[nH]c3cc2S(=O)(=O)N2CCNCC2)c1` [Example 11-1, 5-(3,5-dimethylphenoxy)-6-(1-piperazinylsulfonyl)-1H-indole trifluoroacetate], at Human CCR3, the IC50 was greater than 10000 nM. `N#Cc1ccc(Nc2cc(Cl)cc(Cl)c2)c(S(=O)(=O)N2CCNCC2)c1` [Example 20-1, 4-[(3,5-dichlorophenyl)amino]-3-(1-piperazinylsulfonyl)benzonitrile hydrochloride]: the IC50 on Human CCR3 is less than 1000 nM. As for `CN(C)C(=O)c1ccc(Oc2cc(Cl)cc(Cl)c2)c(S(=O)(=O)N2CCNCC2)c1` [Example 10-1, 4-(3,5-dichlorophenoxy)-N,N-dimethyl-3-(1-piperazinylsulfonyl)benzamide hydrochloride], at Human CCR3, the IC50 lay within 1000 to 10000 nM.

Regarding `Cl.Cl.Cl.Nc1ccc(Oc2ccc([N+](=O)[O-])cc2S(=O)(=O)N2CCNCC2)cc1` [Example 1-13], the melting point lay in the range of 246 to 248 °C. Also, on Human CCR3, the IC50 is greater than 10000 nM.

`CN(CCN1CCCCC1)S(=O)(=O)c1cc([N+](=O)[O-])ccc1Sc1cc(Cl)cc(Cl)c1` [Example 26-1, 2-[(3,5-dichlorophenyl)sulfanyl]-N-methyl-5-nitro-N-[2-(1-piperidinyl)ethyl]benzenesulfonamide] registered a melting point of 113 to 114 °C. Moreover, the IC50 at Human CCR3 is less than 1000 nM. In turn, `Cc1ccc(Cl)c(Oc2ccc([N+](=O)[O-])cc2S(=O)(=O)N2CCNCC2)c1` [Example 1-80] showed a melting point of 166 to 167 °C. Besides, on Human CCR3, the concentration for half-maximal inhibition (IC50) is less than 1000 nM. On to `Cc1cc(C)cc(Oc2ccncc2S(=O)(=O)N2CCNCC2)c1` [Example 25-1, 1-{[4-(3,5-dimethylphenoxy)-3-pyridinyl]sulfonyl}piperazine hydrochloride], for which, at Human CCR3, the IC50 is less than 1000 nM. Regarding `Cc1cc(C)cc(Oc2ccc([N+](=O)[O-])cc2S(=O)(=O)N2CCCNCC2)c1` [Example 1-90], the IC50 at Human CCR3 was less than 1000 nM. As to `Cc1cc(C)cc(Oc2ccc(Cl)cc2S(=O)(=O)N2CCNCC2)c1` [Example 5-2, 1-{[5-chloro-2-(3,5-dimethylphenoxy)phenyl]sulfonyl}piperazine hydrochloride], the IC50 at Human CCR3 was less than 1000 nM.

As for `Cc1cc(C)cc(Oc2ccc([N+](=O)[O-])cc2S(=O)(=O)N2CC(C)NC(C)C2)c1` (stereo not drawn) [Example 1-92], at Human CCR3, the IC50 was less than 1000 nM. On to `CC(C)(C)c1ccc(Oc2ccc([N+](=O)[O-])cc2S(=O)(=O)N2CCNCC2)cc1` [Example 1-21], for which the IC50 at Human CCR3 is greater than 10000 nM. For the compound `Cc1cc(C)cc(Oc2ccc(O)cc2S(=O)(=O)N2CCNCC2)c1` [Example 6-1, 4-(3,5-dimethylphenoxy)-3-(1-piperazinylsulfonyl)phenol hydrochloride], the IC50 at Human CCR3 is greater than 10000 nM.

In the case of `COc1ccc(Oc2cc(C)cc(C)c2)c(S(=O)(=O)N2CCNCC2)c1` [Example 6-2, hydrochloride], on Human CCR3, the IC50 fell in the range of 1000 to 10000 nM. Consider `COc1ccc(Oc2ccc([N+](=O)[O-])cc2S(=O)(=O)N2CCNCC2)cc1` [Example 1-19], for which the IC50 at Human CCR3 is greater than 10000 nM. For the compound `O=[N+]([O-])c1ccc(Oc2ccccc2)c(S(=O)(=O)N2CCNCC2)c1` [Example 1-18], on Human CCR3, the IC50 lay within 1000 to 10000 nM.

As to `O=[N+]([O-])c1ccc(Oc2cccc(F)c2)c(S(=O)(=O)N2CCNCC2)c1` [Example 1-25], the IC50 on Human CCR3 is less than 1000 nM.

For `O=[N+]([O-])c1ccc(Oc2ccc(F)cc2)c(S(=O)(=O)N2CCNCC2)c1` [Example 1-20], the IC50 on Human CCR3 was greater than 10000 nM. On the same count and under the same terms, the result for `Cc1cc(C)cc(Oc2ccc(Br)cc2S(=O)(=O)N2CCNCC2)c1` [Example 8-1, 1-{[5-bromo-2-(3,5-dimethylphenoxy)phenyl]sulfonyl}piperazine hydrochloride] reads less than 1000 nM; that for `Cc1cc(Oc2ccc([N+](=O)[O-])cc2S(=O)(=O)N2CCNCC2)c(C(C)C)cc1Cl` [Example 1-81], greater than 10000 nM; that for `Cc1cc(C)cc(Oc2ccc(C#N)cc2S(=O)(=O)N2CCNCC2)c1` [Example 9-1, 4-(3,5-dimethylphenoxy)-3-(1-piperazinylsulfonyl)benzonitrile hydrochloride], less than 1000 nM. On to `Cc1cc(C)cc(Oc2ccc([N+](=O)[O-])cc2S(=O)(=O)N2CCN(CCOCCO)CC2)c1` [Example 1-89], for which the IC50 on Human CCR3 is less than 1000 nM. Still for that read-out and setting: the result for `Cc1cc(C)cc(Sc2ccc([N+](=O)[O-])cc2S(=O)(=O)N2CCNCC2)c1` [Example 2-1, 1-({2-[(3,5-dimethylphenyl)-sulfanyl]-5-nitrophenyl}sulfonyl)piperazine hydrochloride] reads less than 1000 nM; that for `Cc1cc(C)cc(Oc2ccc([N+](=O)[O-])cc2S(=O)(=O)N2CCNCC2)c1` [Example 1-2, 1-{[2-(3,5-dimethylphenoxy)-5-nitrophenyl]sulfonyl}piperazine hydrochloride], less than 1000 nM. For the compound `O=[N+]([O-])c1ccc(Oc2ccc(Cl)cc2)c(S(=O)(=O)N2CCNCC2)c1` [Example 1-22], on Human CCR3, the IC50 is greater than 10000 nM.
